Earlier results on 1 compound are cited in PubChem BioAssay AID1259409 (Chemical Carcinogenesis Research Information System (CCRIS), 2018).

This data set relates to rodent chemically induced tumor inhibition, incidence and multiplicity. As to the kind of experiment: CCRIS tumor inhibitor studies. The following applies: Dose [Inhibitor]: 0, Promoter: NONE USED.

Turning to `CCC1(c2ccccc2)C(=O)NC(=O)NC1=O`, the “tumour outcome (control, treated, inhibition, significance)” value by setting is: (Carcinogen: DIETHYLNITROSAMINE, 55-18-5, 80 MG/KG 1/D FOR 3 D PRIOR TO EACH CARCINOGEN DOSE (STUDY DURATION: 6 MO), Route [Inhibitor]: INTRAPERITONEAL, Species: RAT, Strain/Sex: BD6/FEMALE, Target Tissue: Type of Lesion: ESOPHAGUS: TUMOR, Dose [Carcinogen]: 80 MG/KG BW 1/WK FOR 8 WK) 18%, 0%, 100%, not significant; (Carcinogen: DIETHYLNITROSAMINE, 55-18-5, 80 MG/KG 1/D FOR 3 D PRIOR TO EACH CARCINOGEN DOSE (STUDY DURATION: 6 MO), Route [Inhibitor]: INTRAPERITONEAL, Species: RAT, Strain/Sex: BD6/FEMALE, Target Tissue: Type of Lesion: LIVER: TUMOR, Dose [Carcinogen]: 80 MG/KG BW 1/WK FOR 8 WK) 82%, 100%, -18%, not significant; (Carcinogen: N-ETHYL-N-NITROSOUREA, 759-73-9, 0.05% IN DRINKING WATER BEGINNING 4 WK POST CARCINOGEN AND CONTINUING FOR STUDY DURATION (STUDY DURATION: 52 WK), Route [Inhibitor]: ORAL, Species: RAT, Strain/Sex: WF/FEMALE, Target Tissue: Type of Lesion: BRAIN: GLIOMA, Dose [Carcinogen]: 5 MG ONCE AT 24 HR OF AGE) 7/13 (54%), 1/12 (8%), 85%, p<.05; (Carcinogen: N-ETHYL-N-NITROSOUREA, 759-73-9, 0.05% IN DRINKING WATER BEGINNING 4 WK POST CARCINOGEN AND CONTINUING FOR STUDY DURATION (STUDY DURATION: 52 WK), Route [Inhibitor]: ORAL, Species: RAT, Strain/Sex: WF/MALE, Target Tissue: Type of Lesion: BRAIN: GLIOMA, Dose [Carcinogen]: 5 MG ONCE AT 24 HR OF AGE) 3/13 (23%), 1/10 (10%), 56%, not significant; (Carcinogen: N-ETHYL-N-NITROSOUREA, 759-73-9, 0.05% IN DRINKING WATER BEGINNING 4 WK POST CARCINOGEN AND CONTINUING FOR STUDY DURATION (STUDY DURATION: 52 WK), Route [Inhibitor]: ORAL, Species: RAT, Strain/Sex: WF/MALE, Target Tissue: Type of Lesion: MENINGES: TUMOR, Dose [Carcinogen]: 5 MG ONCE AT 24 HR OF AGE) 1/13 (8%), 0/10 (0%), 100%, not calculated; (Carcinogen: N-METHYL-N-NITROSOUREA, 684-93-5, 0.05% IN DIET BEGINNING POST CARCINOGEN TREATMENT AND CONTINUING FOR 23 WK (STUDY DURATION: 25 WK), Route [Inhibitor]: ORAL, Species: RAT, Strain/Sex: F344/MALE, Target Tissue: Type of Lesion: FORESTOMACH: PAPILLOMA, Dose [Carcinogen]: 50 MG/KG 4/2 WK) 8/17 (47%), 12/18 (67%), -43%, not calculated. Besides, the “tumour outcome (control, treated, inhibition, significance)” value was 2/17 (12%), 9/18 (50%), -316%, not calculated (Carcinogen: N-METHYL-N-NITROSOUREA, 684-93-5, 0.05% IN DIET BEGINNING POST CARCINOGEN TREATMENT AND CONTINUING FOR 23 WK (STUDY DURATION: 25 WK), Route [Inhibitor]: ORAL, Species: RAT, Strain/Sex: F344/MALE, Target Tissue: Type of Lesion: FORESTOMACH: SQUAMOUS CELL CARCINOMA, Dose [Carcinogen]: 50 MG/KG 4/2 WK); 3/17 (18%), 5/18 (28%), -56%, not calculated (Carcinogen: N-METHYL-N-NITROSOUREA, 684-93-5, 0.05% IN DIET BEGINNING POST CARCINOGEN TREATMENT AND CONTINUING FOR 23 WK (STUDY DURATION: 25 WK), Route [Inhibitor]: ORAL, Species: RAT, Strain/Sex: F344/MALE, Target Tissue: Type of Lesion: HEMATOPOIETIC SYSTEM: LYMPHOMA OR LEUKEMIA, Dose [Carcinogen]: 50 MG/KG 4/2 WK); 9/17 (53%), 6/18 (33%), 38%, not calculated (Carcinogen: N-METHYL-N-NITROSOUREA, 684-93-5, 0.05% IN DIET BEGINNING POST CARCINOGEN TREATMENT AND CONTINUING FOR 23 WK (STUDY DURATION: 25 WK), Route [Inhibitor]: ORAL, Species: RAT, Strain/Sex: F344/MALE, Target Tissue: Type of Lesion: SMALL INTESTINE: ADENOCARCINOMA, Dose [Carcinogen]: 50 MG/KG 4/2 WK); 10/17 (59%), 15/18 (83%), -41%, not calculated (Carcinogen: N-METHYL-N-NITROSOUREA, 684-93-5, 0.05% IN DIET BEGINNING POST CARCINOGEN TREATMENT AND CONTINUING FOR 23 WK (STUDY DURATION: 25 WK), Route [Inhibitor]: ORAL, Species: RAT, Strain/Sex: F344/MALE, Target Tissue: Type of Lesion: SMALL INTESTINE: ADENOMA, Dose [Carcinogen]: 50 MG/KG 4/2 WK); 1/17 (6%), 6/18 (33%), -450%, not calculated (Carcinogen: N-METHYL-N-NITROSOUREA, 684-93-5, 0.05% IN DIET BEGINNING POST CARCINOGEN TREATMENT AND CONTINUING FOR 23 WK (STUDY DURATION: 25 WK), Route [Inhibitor]: ORAL, Species: RAT, Strain/Sex: F344/MALE, Target Tissue: Type of Lesion: THYROID: ADENOCARCINOMA, Dose [Carcinogen]: 50 MG/KG 4/2 WK); 3/17 (18%), 16/18 (89%), -394%, not calculated (Carcinogen: N-METHYL-N-NITROSOUREA, 684-93-5, 0.05% IN DIET BEGINNING POST CARCINOGEN TREATMENT AND CONTINUING FOR 23 WK (STUDY DURATION: 25 WK), Route [Inhibitor]: ORAL, Species: RAT, Strain/Sex: F344/MALE, Target Tissue: Type of Lesion: THYROID: ADENOMA, Dose [Carcinogen]: 50 MG/KG 4/2 WK). The “tumour outcome (control, treated, inhibition, significance)” value runs as follows: (Carcinogen: N-METHYL-N-NITROSOUREA, 684-93-5, 0.05% IN DIET BEGINNING POST CARCINOGEN TREATMENT AND CONTINUING FOR 23 WK (STUDY DURATION: 25 WK), Route [Inhibitor]: ORAL, Species: RAT, Strain/Sex: F344/MALE, Target Tissue: Type of Lesion: TONGUE: PAPILLOMA, Dose [Carcinogen]: 50 MG/KG 4/2 WK) 2/17 (12%), 2/18 (11%), 8%, not calculated; (Carcinogen: N-METHYL-N-NITROSOUREA, 684-93-5, 0.05% IN DIET BEGINNING POST CARCINOGEN TREATMENT AND CONTINUING FOR 23 WK (STUDY DURATION: 25 WK), Route [Inhibitor]: ORAL, Species: RAT, Strain/Sex: F344/MALE, Target Tissue: Type of Lesion: TONGUE: SQUAMOUS CELL CARCINOMA, Dose [Carcinogen]: 50 MG/KG 4/2 WK) 2/17 (12%), 3/18 (17%), -42%, not calculated; (Carcinogen: N-METHYL-N-NITROSOUREA, 684-93-5, 0.05% IN DIET BEGINNING POST CARCINOGEN TREATMENT AND CONTINUING FOR 23 WK (STUDY DURATION: 25 WK), Route [Inhibitor]: ORAL, Species: RAT, Strain/Sex: F344/MALE, Target Tissue: Type of Lesion: URINARY BLADDER: PAPILLOMA, Dose [Carcinogen]: 50 MG/KG 4/2 WK) 2/17 (12%), 1/18 (6%), 50%, not calculated; (0.05% IN DIET FOR 13 WK AFTER WEANING (STUDY DURATION: 13 WK), Route [Inhibitor]: ORAL, Species: MOUSE, Strain/Sex: DDK/FEMALE, Target Tissue: Type of Lesion: LIVER: TUMOR, Dose [Carcinogen]: 40 MG/KG ADMINISTERED TO MOTHERS ON DAY 14 OF GESTATION) 2/15 (13%), 1/15 (7%), 46%, p<0.05; (0.05% IN DIET FOR 13 WK AFTER WEANING (STUDY DURATION: 13 WK), Route [Inhibitor]: ORAL, Species: MOUSE, Strain/Sex: DDK/MALE, Target Tissue: Type of Lesion: LIVER: TUMOR, Dose [Carcinogen]: 40 MG/KG ADMINISTERED INTRAPERITONEALLY TO MOTHERS ON DAY 14 OF GESTATION) 2/15 (13%), 1/7 (6%), 54%, p<0.05; (0.05% IN DIET FOR 25 WK AFTER WEANING (STUDY DURATION: 25 WK), Route [Inhibitor]: ORAL, Species: MOUSE, Strain/Sex: DDK/MALE, Target Tissue: Type of Lesion: LIVER: TUMOR, Dose [Carcinogen]: 40 MG/KG ADMINISTERED TO MOTHERS ON DAY 14 OF GESTATION) 8/15 (53%), 0/18 (0%), 100%, not calculated.
